These results are taken from US20180024136A1, “Development of ABCG2-Sensitive Fluorescent Probe For Isolation of ABCG2low Neural Stem/Progenitor Cells” (National University of Singapore, priority 2015, published 2018).

In one data set the target is ABCB1 (Homo sapiens, UniProt P08183). The data set is described as follows: Probe fluorescence in HCT-15 cells under verapamil. The note with it: HCT-15, 10 to 10,000 nM verapamil.
A further data set concerns the target T1, ABCG2 (Homo sapiens, UniProt Q9UNQ0).
T1 sequence (Q9UNQ0 1-655): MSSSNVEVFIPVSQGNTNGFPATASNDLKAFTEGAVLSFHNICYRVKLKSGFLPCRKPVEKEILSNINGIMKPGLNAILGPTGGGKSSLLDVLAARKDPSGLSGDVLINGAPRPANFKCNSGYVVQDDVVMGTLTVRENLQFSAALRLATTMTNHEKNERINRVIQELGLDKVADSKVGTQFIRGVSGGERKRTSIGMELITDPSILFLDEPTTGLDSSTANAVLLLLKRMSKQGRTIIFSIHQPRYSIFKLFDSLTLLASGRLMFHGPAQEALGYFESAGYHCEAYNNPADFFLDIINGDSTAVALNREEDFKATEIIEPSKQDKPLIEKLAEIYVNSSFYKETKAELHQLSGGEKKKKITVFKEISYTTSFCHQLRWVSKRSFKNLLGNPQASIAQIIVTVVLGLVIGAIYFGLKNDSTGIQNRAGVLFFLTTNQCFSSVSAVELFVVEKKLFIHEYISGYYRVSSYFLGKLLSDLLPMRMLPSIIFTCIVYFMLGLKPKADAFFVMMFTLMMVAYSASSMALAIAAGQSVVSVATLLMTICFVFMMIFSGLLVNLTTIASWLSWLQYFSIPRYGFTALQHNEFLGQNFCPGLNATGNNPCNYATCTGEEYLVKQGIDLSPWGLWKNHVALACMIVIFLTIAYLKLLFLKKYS
The data set is described as follows: Probe fluorescence in ABCG2/KB3-1 cells under Ko143. The following applies: ABCG2/KB3-1, 10 to 1,000 nM Ko143.

Data set [1] can be described thus: Spectroscopic properties of CF library (absorbance, emission, quantum yield, extinction coefficient). It is filed as physicochemical. The note with it: 100 μM in ethanol; for QY (Φ): reference fluorescein. As for the experimental part: All the chemicals and solvents were purchased from Sigma Aldrich, Alfa Aesar, Fluka, MERCK, Tocris or Acros, and used without further purification. Normal phase purifications were carried out using Merck Silica Gel 60 (particle size: 0.040-0.063 mm, 230-400 mesh). Analytical characterization was performed on a HPLC-MS (Agilent-1200 series) with a DAD detector and a single quadrupole mass spectrometer (6130 series) with an ESI probe. ^1H-NMR and ^13C-NMR spectra were recorded on Bruker Avance 300 MHz NMR spectrometers, and chemical shifts are expressed in parts per million (ppm) and coupling constants are reported as a J value in Hertz (Hz). High resolution mass spectrometry (HRMS) data was recorded on a Micro mass VG 7035 (Mass Spectrometry Laboratory at National University of Singapore (NUS)). Spectroscopic and quantum yield data were measured on spectroscopic measurements, performed on a fluorometer and UV/VIS instrument, Synergy 4 of Bioteck Company. The slit width was 1 nm for both excitation and emission, and the data analysis was performed using GraphPrism 5.0.

A further data set relates to differentiated NS5 cells. The data set is described as follows: CDg13 staining of differentiated NS5 cells under ABC transporter inhibitors (flow cytometry). It is filed as cell-based, mouse. The following applies: inhibitor during staining. As for the experimental part: Flow cytometry was performed using Attune Cytometer (Invitrogen). Hoechest33342 (2 μM) and CDg13 (1 μM) are incubated with culture media for 1 hours and detached as single cells. The collected cells were suspended in BSA- and FBS-free DMEM to prevent loss of CDg13 signal. The average fluorescence intensity of total cells in each experimental group was analyzed by Attune cytometer software for quantification study.

Chain of ABCB1 (P08183 whole entry): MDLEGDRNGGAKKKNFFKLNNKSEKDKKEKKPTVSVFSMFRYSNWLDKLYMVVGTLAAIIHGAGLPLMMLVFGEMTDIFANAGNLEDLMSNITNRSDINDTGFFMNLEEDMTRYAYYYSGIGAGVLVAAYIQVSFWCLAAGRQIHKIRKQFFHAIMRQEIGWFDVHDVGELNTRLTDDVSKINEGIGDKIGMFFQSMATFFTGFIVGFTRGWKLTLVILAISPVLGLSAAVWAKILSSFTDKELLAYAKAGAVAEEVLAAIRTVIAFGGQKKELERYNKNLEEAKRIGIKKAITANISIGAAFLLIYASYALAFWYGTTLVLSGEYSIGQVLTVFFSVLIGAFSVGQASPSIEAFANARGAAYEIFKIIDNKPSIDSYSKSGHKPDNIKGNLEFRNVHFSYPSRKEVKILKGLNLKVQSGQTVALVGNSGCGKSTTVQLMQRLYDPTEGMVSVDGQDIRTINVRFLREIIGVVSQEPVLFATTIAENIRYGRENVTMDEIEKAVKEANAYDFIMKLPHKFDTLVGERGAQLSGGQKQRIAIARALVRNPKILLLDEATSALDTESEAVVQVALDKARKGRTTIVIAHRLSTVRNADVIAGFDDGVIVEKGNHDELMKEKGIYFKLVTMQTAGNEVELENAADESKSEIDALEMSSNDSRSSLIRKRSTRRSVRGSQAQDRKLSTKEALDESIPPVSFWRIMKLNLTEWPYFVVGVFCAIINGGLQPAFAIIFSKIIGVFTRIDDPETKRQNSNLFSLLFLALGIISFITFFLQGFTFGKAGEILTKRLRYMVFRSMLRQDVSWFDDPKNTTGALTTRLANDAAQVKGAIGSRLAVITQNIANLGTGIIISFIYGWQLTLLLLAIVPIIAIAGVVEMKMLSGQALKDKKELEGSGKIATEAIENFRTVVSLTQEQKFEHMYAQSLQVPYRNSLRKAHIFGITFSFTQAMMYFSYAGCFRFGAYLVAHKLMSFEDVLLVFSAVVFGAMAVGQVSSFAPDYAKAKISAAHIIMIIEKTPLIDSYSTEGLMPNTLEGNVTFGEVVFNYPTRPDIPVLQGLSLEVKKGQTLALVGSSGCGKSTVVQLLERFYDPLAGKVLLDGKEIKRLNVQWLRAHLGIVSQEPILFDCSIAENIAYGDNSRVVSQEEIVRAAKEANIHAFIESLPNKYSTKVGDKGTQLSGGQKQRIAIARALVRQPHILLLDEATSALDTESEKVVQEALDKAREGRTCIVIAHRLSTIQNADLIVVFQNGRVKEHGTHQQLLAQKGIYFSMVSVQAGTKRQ

Regarding Rhodamine123, the “fold change of staining” value on ABCB1 is recorded as “up to 4.0 fold”. For the same molecule, on ABCG2, the “fold change in fluorescence intensity” value is reported as “did not increase”.

On to `CC(C)N(Cc1ccccc1)C(=O)c1ccc(-c2c3cc(Cl)c(=O)cc-3oc3cc(O)c(Cl)cc23)cc1` [CF-C2], for which, in data set [1], the “Abs (nm)” value was 520 nm, the “Em (nm)” value is 559 nm and the “QY (Φ)” value was 0.78.

Regarding `CCCCCCCCCCCCCCCCCCN(C)C(=O)c1ccc(-c2c3cc(Cl)c(=O)cc-3oc3cc(O)c(Cl)cc23)cc1` [CF-H11], in data set [1], the “Abs (nm)” value turned out to be 520 nm, the “Em (nm)” value is recorded as 552 nm and the “QY (Φ)” value is reported as 0.32.

For the molecule `CCCCCCCCCCCCN(C)C(=O)c1ccc(-c2c3cc(Cl)c(=O)cc-3oc3cc(O)c(Cl)cc23)cc1` [CF-G2], in data set [1], the “Abs (nm)” value is 520 nm, the “Em (nm)” value was 553 nm and the “QY (Φ)” value is on record as 0.85.

`CCC(C)NC(=O)c1ccc(-c2c3cc(Cl)c(=O)cc-3oc3cc(O)c(Cl)cc23)cc1` (stereo not drawn) [CF-G8]: in data set [1], the “Abs (nm)” value turned out to be 520 nm, the “Em (nm)” value came out at 556 nm and the “QY (Φ)” value came to 0.29.

In the case of `O=C(c1ccc(-c2c3cc(Cl)c(=O)cc-3oc3cc(O)c(Cl)cc23)cc1)N1CCc2ccccc2C1` [CF-A5], in data set [1], the “Abs (nm)” value was 520 nm, the “Em (nm)” value was determined as 556 nm and the “QY (Φ)” value was determined as 0.75.

As to `CCCCCCNC(=O)c1ccc(-c2c3cc(Cl)c(=O)cc-3oc3cc(O)c(Cl)cc23)cc1` [CF-H4], in data set [1], the “Abs (nm)” value was found to be 520 nm, the “Em (nm)” value is 556 nm and the “QY (Φ)” value is 0.63.

For `CCCCCCN(C)C(=O)c1ccc(-c2c3cc(Cl)c(=O)cc-3oc3cc(O)c(Cl)cc23)cc1` [CF-F10], in data set [1], the “Abs (nm)” value is 520 nm, the “Em (nm)” value is reported as 559 nm and the “QY (Φ)” value turned out to be 0.35.

In the case of `CN(C)C(=O)CCSC(SCCC(=O)O)c1cccc(/C=C/c2ccc3ccc(Cl)cc3n2)c1` (stereo not drawn) [MK571], the “staining of CDg13 versus DMSO control” value in the data set on differentiated NS5 cells was approximately 1.5 fold.

As to `CCCCNC(=O)c1ccc(-c2c3cc(Cl)c(=O)cc-3oc3cc(O)c(Cl)cc23)cc1` [CF-G7], in data set [1], the “Abs (nm)” value is 520 nm, the “Em (nm)” value is given as 559 nm and the “QY (Φ)” value came to 0.41.

Turning to `O=C(NCc1c(F)cccc1F)c1ccc(-c2c3cc(Cl)c(=O)cc-3oc3cc(O)c(Cl)cc23)cc1` [CF-A7], in data set [1], the “Abs (nm)” value stood at 520 nm, the “Em (nm)” value amounted to 560 nm and the “QY (Φ)” value is listed as 0.58.

Regarding `CCCCCCCCCCCCCNC(=O)c1ccc(-c2c3cc(Cl)c(=O)cc-3oc3cc(O)c(Cl)cc23)cc1` [CF-A4], in data set [1], the “Abs (nm)” value came to 520 nm, the “Em (nm)” value was determined as 558 nm and the “QY (Φ)” value is 0.26.

For `CCCCC(CC)CNC(=O)c1ccc(-c2c3cc(Cl)c(=O)cc-3oc3cc(O)c(Cl)cc23)cc1` (stereo not drawn) [CF-B9], in data set [1], the “Abs (nm)” value worked out at 520 nm, the “Em (nm)” value came out at 558 nm and the “QY (Φ)” value was determined as 0.60.

Consider `CCCN(CC1CC1)C(=O)c1ccc(-c2c3cc(Cl)c(=O)cc-3oc3cc(O)c(Cl)cc23)cc1` [CF-C6], for which, in data set [1], the “Abs (nm)” value came to 520 nm, the “Em (nm)” value was determined as 554 nm and the “QY (Φ)” value turned out to be 0.58.

As for `CCCCCN(CCCCC)C(=O)c1ccc(-c2c3cc(Cl)c(=O)cc-3oc3cc(O)c(Cl)cc23)cc1` [CF-G3], in data set [1], the “Abs (nm)” value amounted to 520 nm, the “Em (nm)” value came to 552 nm and the “QY (Φ)” value was 0.63.

For the molecule `COc1cc2c(cc1OC)CN(CCc1ccc(NC(=O)c3cccc4c(=O)c5cccc(OC)c5[nH]c34)cc1)CC2` [Elacridar, elacridar], the “staining of CDg13 versus DMSO control” value with differentiated NS5 cells is on record as “around 2.5 fold”.

Regarding `CCCCN(CCCC)C(=O)c1ccc(-c2c3cc(Cl)c(=O)cc-3oc3cc(O)c(Cl)cc23)cc1` [CF-E3], in data set [1], the “Abs (nm)” value amounted to 520 nm, the “Em (nm)” value stood at 554 nm and the “QY (Φ)” value is on record as 0.66.

For the molecule `CC(C)CC(C)NC(=O)c1ccc(-c2c3cc(Cl)c(=O)cc-3oc3cc(O)c(Cl)cc23)cc1` (stereo not drawn) [CF-H10], in data set [1], the “Abs (nm)” value turned out to be 520 nm, the “Em (nm)” value was found to be 557 nm and the “QY (Φ)” value amounted to 0.38.

For `O=C(NCc1ccc(OC(F)(F)F)cc1)c1ccc(-c2c3cc(Cl)c(=O)cc-3oc3cc(O)c(Cl)cc23)cc1` [CF-A8], in data set [1], the “Abs (nm)” value is listed as 520 nm, the “Em (nm)” value was 558 nm and the “QY (Φ)” value was determined as 0.37.

For the molecule `COc1cccc(CNC(=O)c2ccc(-c3c4cc(Cl)c(=O)cc-4oc4cc(O)c(Cl)cc34)cc2)c1` [CF-C4], in data set [1], the “Abs (nm)” value turned out to be 520 nm, the “Em (nm)” value is 559 nm and the “QY (Φ)” value was 0.55.

For the molecule `CCCCC(CC)COCCCNC(=O)c1ccc(-c2c3cc(Cl)c(=O)cc-3oc3cc(O)c(Cl)cc23)cc1` (stereo not drawn) [CF-B5], in data set [1], the “Abs (nm)” value came out at 520 nm, the “Em (nm)” value is 559 nm and the “QY (Φ)” value stood at 0.54.

`O=C(NCc1c(Cl)cccc1Cl)c1ccc(-c2c3cc(Cl)c(=O)cc-3oc3cc(O)c(Cl)cc23)cc1` [CF-E2]: in data set [1], the “Abs (nm)” value is 520 nm, the “Em (nm)” value was 557 nm and the “QY (Φ)” value is given as 0.63.

For `CC(C)CCNC(=O)c1ccc(-c2c3cc(Cl)c(=O)cc-3oc3cc(O)c(Cl)cc23)cc1` [CF-C8], in data set [1], the “Abs (nm)” value was determined as 520 nm, the “Em (nm)” value stood at 558 nm and the “QY (Φ)” value came to 0.68.

Regarding `CCCCCCCNC(=O)c1ccc(-c2c3cc(Cl)c(=O)cc-3oc3cc(O)c(Cl)cc23)cc1` [CF-B11], in data set [1], the “Abs (nm)” value turned out to be 520 nm, the “Em (nm)” value was 558 nm and the “QY (Φ)” value worked out at 0.66.

Turning to `Cc1ccc(CCNC(=O)c2ccc(-c3c4cc(Cl)c(=O)cc-4oc4cc(O)c(Cl)cc34)cc2)cc1` [CF-C10], in data set [1], the “Abs (nm)” value is listed as 520 nm, the “Em (nm)” value is 558 nm and the “QY (Φ)” value turned out to be 0.54.

Regarding `COc1ccc(CCNC(=O)c2ccc(-c3c4cc(Cl)c(=O)cc-4oc4cc(O)c(Cl)cc34)cc2)cc1` [CF-C5], in data set [1], the “Abs (nm)” value is 520 nm, the “Em (nm)” value came out at 558 nm and the “QY (Φ)” value came out at 0.63.

For the molecule `CCCN(CCC)S(=O)(=O)c1ccc(C(=O)O)cc1` [probenecid], in the data set with differentiated NS5 cells, the “staining of CDg13 versus DMSO control” value is given as “no effect of probe staining”.

Consider `CCCN(CCC)C(=O)c1ccc(-c2c3cc(Cl)c(=O)cc-3oc3cc(O)c(Cl)cc23)cc1` [CF-A11], for which, in data set [1], the “Abs (nm)” value is on record as 520 nm, the “Em (nm)” value was 558 nm and the “QY (Φ)” value stood at 0.36.

Turning to `CN(C(=O)c1ccc(-c2c3cc(Cl)c(=O)cc-3oc3cc(O)c(Cl)cc23)cc1)C1CCCCC1` [CF-A10], in data set [1], the “Abs (nm)” value amounted to 520 nm, the “Em (nm)” value is given as 558 nm and the “QY (Φ)” value was determined as 0.63.

Turning to `CCOC(=O)N1CCC(NC(=O)c2ccc(-c3c4cc(Cl)c(=O)cc-4oc4cc(O)c(Cl)cc34)cc2)CC1` [CF-G6], in data set [1], the “Abs (nm)” value came to 520 nm, the “Em (nm)” value was found to be 556 nm and the “QY (Φ)” value is 0.29.

For `COc1ccc(CCN(C)CCCC(C#N)(c2ccc(OC)c(OC)c2)C(C)C)cc1OC` (stereo not drawn) [verapamil], the “staining of CDg13 versus DMSO control” value in the data set with differentiated NS5 cells is given as “no effect of probe staining”.

With `O=C(NC1CCCCC1)c1ccc(-c2c3cc(Cl)c(=O)cc-3oc3cc(O)c(Cl)cc23)cc1` [CF-A9], in data set [1], the “Abs (nm)” value turned out to be 520 nm, the “Em (nm)” value came to 557 nm and the “QY (Φ)” value came to 0.63.

As for `O=C(CCCCc1ccccc1)c1ccc(-c2c3cc(Cl)c(=O)cc-3oc3cc(O)c(Cl)cc23)cc1` [CF-G4], in data set [1], the “Abs (nm)” value is given as 520 nm, the “Em (nm)” value is 556 nm and the “QY (Φ)” value turned out to be 0.40.

Turning to `COc1cccc(CCNC(=O)c2ccc(-c3c4cc(Cl)c(=O)cc-4oc4cc(O)c(Cl)cc34)cc2)c1OC` [CF-E7], in data set [1], the “Abs (nm)” value is given as 520 nm, the “Em (nm)” value was 557 nm and the “QY (Φ)” value worked out at 0.46.
